Experimental findings from patent US20240398784A1, “C-LINKED ISOQUINOLINE AMIDES AS LRRK2 INHIBITORS, PHARMACEUTICAL COMPOSITIONS, AND USES THEREOF” (Merck Sharp & Dohme LLC, priority 2021, published 2024) are described below.

Chain of LRRK2 G2019S (Q5S007 whole entry G2019S): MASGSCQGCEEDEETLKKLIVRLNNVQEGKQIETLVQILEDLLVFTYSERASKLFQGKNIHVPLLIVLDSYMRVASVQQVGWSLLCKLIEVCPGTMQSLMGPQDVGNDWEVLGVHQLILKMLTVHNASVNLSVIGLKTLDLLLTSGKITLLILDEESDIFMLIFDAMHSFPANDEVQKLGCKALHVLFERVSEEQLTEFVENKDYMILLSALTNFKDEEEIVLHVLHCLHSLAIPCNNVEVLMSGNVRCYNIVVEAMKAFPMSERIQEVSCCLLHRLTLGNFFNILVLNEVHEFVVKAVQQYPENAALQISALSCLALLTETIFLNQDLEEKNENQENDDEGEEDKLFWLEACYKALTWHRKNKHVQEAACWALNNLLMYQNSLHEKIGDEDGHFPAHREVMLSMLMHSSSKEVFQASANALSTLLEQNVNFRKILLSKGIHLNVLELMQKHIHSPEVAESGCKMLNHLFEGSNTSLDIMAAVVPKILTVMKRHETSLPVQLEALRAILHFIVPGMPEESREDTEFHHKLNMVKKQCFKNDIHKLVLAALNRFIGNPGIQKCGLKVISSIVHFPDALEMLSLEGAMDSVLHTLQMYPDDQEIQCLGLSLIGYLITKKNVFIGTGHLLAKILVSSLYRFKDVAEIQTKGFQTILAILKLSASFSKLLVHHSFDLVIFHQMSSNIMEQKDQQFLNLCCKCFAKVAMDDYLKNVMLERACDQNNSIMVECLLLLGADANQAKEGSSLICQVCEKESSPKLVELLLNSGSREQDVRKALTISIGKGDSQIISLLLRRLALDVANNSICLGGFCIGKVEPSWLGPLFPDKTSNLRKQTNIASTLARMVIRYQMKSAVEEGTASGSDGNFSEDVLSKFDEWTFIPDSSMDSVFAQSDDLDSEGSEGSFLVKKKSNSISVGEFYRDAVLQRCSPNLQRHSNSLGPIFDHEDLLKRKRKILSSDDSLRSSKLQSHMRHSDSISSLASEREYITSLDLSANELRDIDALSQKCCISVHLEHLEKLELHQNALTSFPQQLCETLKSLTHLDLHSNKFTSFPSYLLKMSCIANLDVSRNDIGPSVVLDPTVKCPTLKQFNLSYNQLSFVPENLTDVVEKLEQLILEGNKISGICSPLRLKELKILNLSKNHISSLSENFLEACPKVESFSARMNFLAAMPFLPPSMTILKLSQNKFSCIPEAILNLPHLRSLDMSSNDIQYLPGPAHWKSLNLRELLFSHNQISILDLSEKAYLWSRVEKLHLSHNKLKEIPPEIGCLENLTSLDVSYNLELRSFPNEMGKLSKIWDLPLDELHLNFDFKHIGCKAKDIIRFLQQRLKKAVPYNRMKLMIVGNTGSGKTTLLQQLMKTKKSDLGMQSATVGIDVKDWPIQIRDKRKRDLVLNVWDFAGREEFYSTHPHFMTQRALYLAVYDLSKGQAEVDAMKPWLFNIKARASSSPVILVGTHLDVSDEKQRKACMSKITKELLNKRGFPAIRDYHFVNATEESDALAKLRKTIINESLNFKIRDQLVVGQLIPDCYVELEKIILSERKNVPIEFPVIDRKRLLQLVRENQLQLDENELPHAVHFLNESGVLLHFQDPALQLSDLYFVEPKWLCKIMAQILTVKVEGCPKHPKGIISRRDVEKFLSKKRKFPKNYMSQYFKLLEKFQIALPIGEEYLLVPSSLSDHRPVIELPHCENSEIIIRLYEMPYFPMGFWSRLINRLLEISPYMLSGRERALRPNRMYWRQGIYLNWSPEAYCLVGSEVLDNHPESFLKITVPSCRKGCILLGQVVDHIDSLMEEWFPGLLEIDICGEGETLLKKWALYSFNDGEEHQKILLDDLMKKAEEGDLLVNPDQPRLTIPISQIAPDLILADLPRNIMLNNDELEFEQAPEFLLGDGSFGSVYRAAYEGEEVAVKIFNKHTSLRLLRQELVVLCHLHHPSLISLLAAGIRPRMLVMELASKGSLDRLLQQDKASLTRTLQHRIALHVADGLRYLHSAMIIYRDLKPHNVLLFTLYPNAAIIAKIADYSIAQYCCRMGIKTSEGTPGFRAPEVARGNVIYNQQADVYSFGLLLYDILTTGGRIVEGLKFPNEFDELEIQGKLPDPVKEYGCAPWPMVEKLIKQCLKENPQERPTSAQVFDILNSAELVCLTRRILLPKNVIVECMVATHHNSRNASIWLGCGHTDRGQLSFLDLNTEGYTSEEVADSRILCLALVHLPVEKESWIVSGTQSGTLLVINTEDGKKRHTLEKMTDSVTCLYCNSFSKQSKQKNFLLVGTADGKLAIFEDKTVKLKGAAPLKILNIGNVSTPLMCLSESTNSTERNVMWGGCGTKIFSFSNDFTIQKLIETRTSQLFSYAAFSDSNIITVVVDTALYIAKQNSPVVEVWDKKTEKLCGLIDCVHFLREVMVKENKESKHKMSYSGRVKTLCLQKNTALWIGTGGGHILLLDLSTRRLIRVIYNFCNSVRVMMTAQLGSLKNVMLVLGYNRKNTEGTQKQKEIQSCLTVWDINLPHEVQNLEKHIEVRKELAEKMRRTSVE

For this experiment, the target named is LRRK2 G2019S (Homo sapiens, UniProt Q5S007, G2019S). The experiment can be described thus: LRRK2 G2019S Km ATP LanthaScreen assay. The class given is biochemical. The settings on record: read-out: LRRK2 pIC50 (converted). Here is the method:
Unless otherwise noted, all reactions are magnetically stirred. Unless otherwise noted, when diethyl ether is used in the experiments described below, it is Fisher ACS certified material and is stabilized with BHT. Unless otherwise noted, “concentrated” and/or “solvent removed under reduced pressure” means evaporating the solvent from a solution or mixture using a rotary evaporator or vacuum pump. Unless otherwise noted, flash chromatography is carried out on a Teledyne Isco (Lincoln, NE), Analogix (Burlington, WI), or Biotage (Stockholm, SWE) automated chromatography system using a commercially available cartridge as the column. Columns may be purchased from Teledyne Isco, Analogix, Biotage, Varian (Palo Alto, CA), or Supelco (Bellefonte, PA) and are usually filled with silica gel as the stationary phase. Reverse phase prep-HPLC conditions, where used, can be found at the end of each experimental section. Aqueous solutions were concentrated on a Genevac (Ipswich, ENG) or by freeze-drying/lyophilization.
For `CN1CCO[C@@H](C(=O)Nc2cc3cc(C4(C#N)CC45CC5)ccc3cn2)C1` (single isomer, unassigned) [Ex-1.31, (2R)-N-(6-((R or S)-1-cyanospiro[2.2]pentan-1-yl)isoquinolin-3-yl)-4-methylmorpholine-2-carboxamide], the IC50 is 11.7 nM.
The figure for `CCC(=O)N1CCC(C(=O)Nc2cc3cc(C4(C#N)CC45CC5)ccc3cn2)CC1` (single isomer, unassigned) [Ex-1.32, N-(6-((R or S)-1-cyanospiro[2.2]pentan-1-yl)isoquinolin-3-yl)-1-propionylpiperidine-4-carboxamide] is 2.34 nM; for `N#CC1(c2ccc3cnc(NC(=O)C4C5Oc6cc(Cl)ncc6C54)cc3c2)CC12CC2` (single isomer, unassigned) [Ex-1.33, (1S,1aR,6bS or 1R,1aS,6bR)-4-chloro-N-(6-((R or S)-1-cyanospiro[2.2]pentan-1-yl)isoquinolin-3-yl)-1a,6b-dihydro-1H-cyclopropa[4,5]furo[3,2-c]pyridine-1-carboxamide] it is 28.2 nM.
For the molecule `CCC1C(C(=O)Nc2cc3cc(C4CCN(C5(C)COCC5F)CC4)c(Cl)cc3cn2)C1c1cnn(C)c1` (single isomer, unassigned) [Ex-1.34, (1R,2R,3R or 1R,2S,3R or 1S,2R,3S, or 1S,2S,3S)-N-(7-chloro-6-(1-((3R,4R or 3S,4S)-4-fluoro-3-methyltetrahydrofuran-3-yl)piperidin-4-yl)isoquinolin-3-yl)-2-ethyl-3-(1-methyl-1H-pyrazol-4-yl)cyclopropane-1-carboxamide], the IC50 is 0.0813 nM.
The figure for `CC1(N2CCC(c3cc4cc(NC(=O)CC5CCOCC5)ncc4cc3Cl)CC2)COCC1O` (single isomer, unassigned) [Ex-1.39, N-(7-chloro-6-(1-((3R,4R or 3S,4S)-4-hydroxy-3-methyltetrahydrofuran-3-yl)piperidin-4-yl)isoquinolin-3-yl)-2-(tetrahydro-2H-pyran-4-yl)acetamide] is 0.398 nM; for `Cc1nn(C)cc1CC(=O)Nc1cc2cc(C3CCN(C4(C)COCC4O)CC3)c(Cl)cc2cn1` (single isomer, unassigned) [Ex-1.40, N-(7-chloro-6-(1-((3R,4R or 3S,4S)-4-hydroxy-3-methyltetrahydrofuran-3-yl)piperidin-4-yl)isoquinolin-3-yl)-2-(1,3-dimethyl-1H-pyrazol-4-yl)acetamide] it is 0.112 nM.
As to `N#CC1(c2ccc3cnc(NC(=O)Cc4cccnc4)cc3c2)CC12CC2` (single isomer, unassigned) [Ex-1.41, (R or S)-N-(6-(1-cyanospiro[2.2]pentan-1-yl)isoquinolin-3-yl)-2-(pyridin-3-yl)acetamide], the IC50 was 0.708 nM.
Consider `N#CC1(c2ccc3cnc(NC(=O)Cc4cnn(C(F)F)c4)cc3c2)CC12CC2` (single isomer, unassigned) [Ex-1.43, (R or S)-N-(6-(1-cyanospiro[2.2]pentan-1-yl)isoquinolin-3-yl)-2-(1-(difluoromethyl)-1H-pyrazol-4-yl)acetamide], for which the IC50 is 7.08 nM.
As to `CC(C)(O)c1ccc(CC(=O)Nc2cc3cc(C4(C#N)CC45CC5)ccc3cn2)cc1` (single isomer, unassigned) [Ex-1.44, (R or S)-N-(6-(1-cyanospiro[2.2]pentan-1-yl)isoquinolin-3-yl)-2-(4-(2-hydroxypropan-2-yl)phenyl)acetamide], the IC50 is 22.9 nM.
As for `CC(C)(O)c1cccc(CC(=O)Nc2cc3cc(C4(C#N)CC45CC5)ccc3cn2)c1` (single isomer, unassigned) [Ex-1.45, (R or S)-N-(6-(1-cyanospiro[2.2]pentan-1-yl)isoquinolin-3-yl)-2-(3-(2-hydroxypropan-2-yl)phenyl)acetamide], the IC50 is 12.9 nM.
The value for `CC(C)N1CCOC(CC(=O)Nc2cc3cc(C4(C#N)CC45CC5)ccc3cn2)C1` (single isomer, unassigned) [Ex-1.46, (R or S)-N-(6-(1-cyanospiro[2.2]pentan-1-yl)isoquinolin-3-yl)-2-(4-isopropylmorpholin-2-yl)acetamide] was 13.8 nM; that for `CN1CCOC(CC(=O)Nc2cc3cc(C4(C#N)CC45CC5)ccc3cn2)C1` (single isomer, unassigned) [Ex-1.47, (R or S)-N-(6-(1-cyanospiro[2.2]pentan-1-yl)isoquinolin-3-yl)-2-(4-methylmorpholin-2-yl)acetamide] was 20 nM; that for `CC1(N2CCC(c3cc4cc(NC(=O)c5cnn(C6CC6)c5)ncc4cc3Cl)CC2)COCC1O` (single isomer, unassigned) [Ex-1.48, N-(7-chloro-6-(1-((3R,4R or 3S,4S)-4-hydroxy-3-methyltetrahydrofuran-3-yl)piperidin-4-yl)isoquinolin-3-yl)-1-cyclopropyl-1H-pyrazole-4-carboxamide] was 55 nM.
The value for `C[C@@]1(N2CCC(c3cc4cc(NC(=O)c5ccn(C6CC6)n5)ncc4cc3Cl)CC2)COC[C@@H]1O` (single isomer, unassigned) [Ex-1.49, N-(7-chloro-6-(1-((3R,4R or 3S,4S)-4-hydroxy-3-methyltetrahydrofuran-3-yl)piperidin-4-yl)isoquinolin-3-yl)-1-cyclopropyl-1H-pyrazole-3-carboxamide] was 38.9 nM; that for `CC1(N2CCC(c3cc4cc(NC(=O)c5cnn(C6CC6)c5Cl)ncc4cc3Cl)CC2)COCC1O` (single isomer, unassigned) [Ex-1.50, 5-chloro-N-(7-chloro-6-(1-((3R,4R or 3S,4S)-4-hydroxy-3-methyltetrahydrofuran-3-yl)piperidin-4-yl)isoquinolin-3-yl)-1-cyclopropyl-1H-pyrazole-4-carboxamide] was 0.0813 nM.
The value for `CC1(N2CCC(c3cc4cc(NC(=O)c5cnn(C6CC6)c5Cl)ncc4cc3Cl)CC2)COCC1F` (single isomer, unassigned) [Ex-1.51, 5-chloro-N-(7-chloro-6-(1-((3R,4R or 3S,4S)-4-fluoro-3-methyltetrahydrofuran-3-yl)piperidin-4-yl)isoquinolin-3-yl)-1-cyclopropyl-1H-pyrazole-4-carboxamide] was 0.112 nM; that for `CC1(N2CCC(c3cc4cc(NC(=O)c5cnn(C67CC(C6)C7)c5)ncc4cc3Cl)CC2)COCC1O` (single isomer, unassigned) [Ex-1.52, 1-(bicyclo[1.1.1]pentan-1-yl)-N-(7-chloro-6-(1-((3R,4R or 3S,4S)-4-hydroxy-3-methyltetrahydrofuran-3-yl)piperidin-4-yl)isoquinolin-3-yl)-1H-pyrazole-4-carboxamide] was 1.62 nM.
On to `CC1(N2CCC(c3cc4cc(NC(=O)c5cnn(C67CC(C6)C7)c5)ncc4cc3Cl)CC2)COCC1F` (single isomer, unassigned) [Ex-1.53, 1-(bicyclo[1.1.1]pentan-1-yl)-N-(7-chloro-6-(1-((3R,4R or 3S,4S)-4-fluoro-3-methyltetrahydrofuran-3-yl)piperidin-4-yl)isoquinolin-3-yl)-1H-pyrazole-4-carboxamide], for which the IC50 is 0.676 nM.
In the case of `N#CC1(c2ccc3cnc(NC(=O)C4CC45CC5)cc3c2)CC12CC2` (single isomer, unassigned) [Ex-2.1], the IC50 was 0.871 nM.
As to `N#CC1(c2ccc3cnc(NC(=O)C4CC45CC5)cc3c2)CC12CC2` (single isomer, unassigned) [Ex-2.2], the IC50 is 0.398 nM.
In the case of `O=C(Nc1cc2cc(C3CCN(C4COC4)CC3)c(Cl)cc2cn1)C1CC(OC(F)F)C1` (single isomer, unassigned) [Ex-2.3], the IC50 was 5.62 nM.
For `O=C(Nc1cc2cc(C3CCN(C4COC4)CC3)c(Cl)cc2cn1)C1CC(OC(F)F)C1` (single isomer, unassigned) [Ex-2.4], the IC50 is 14.1 nM.
As for `N#CC1(c2ccc3cnc(NC(=O)C4CC(OC(F)F)C4)cc3c2)CC12CC2` (single isomer, unassigned) [Ex-2.5], the IC50 is 9.77 nM.
On to `N#CC1(c2ccc3cnc(NC(=O)C4CC(OC(F)F)C4)cc3c2)CC12CC2` (single isomer, unassigned) [Ex-2.6], for which the IC50 is 9.12 nM.
For the molecule `N#CC1(c2ccc3cnc(NC(=O)C4CC(OC(F)F)C4)cc3c2)CC12CC2` (single isomer, unassigned) [Ex-2.7], the IC50 is 10.5 nM.
The figure for `O=C(Nc1cc2cc(C3CCN(C4COCC4O)CC3)c(Cl)cc2cn1)C1CC12CCOCC2` (single isomer, unassigned) [Ex-4.1, (R or S)-N-(7-chloro-6-(1-((3R,4R or 3R, 4R)-4-hydroxytetrahydrofuran-3-yl)piperidin-4-yl)isoquinolin-3-yl)-6-oxaspiro[2.5]octane-1-carboxamide] is 0.631 nM; for `O=C(Nc1cc2cc(C3CCN(C4COCC4O)CC3)c(Cl)cc2cn1)C1CC12CCOCC2` (single isomer, unassigned) [Ex-4.2, (R or S)-N-(7-chloro-6-(1-((3R,4R or 3R, 4R)-4-hydroxytetrahydrofuran-3-yl)piperidin-4-yl)isoquinolin-3-yl)-6-oxaspiro[2.5]octane-1-carboxamide] it is 2.82 nM; for `O=C(Nc1cc2cc(C3CCN(C4COCC4O)CC3)c(Cl)cc2cn1)C1CC12CCOCC2` (single isomer, unassigned) [Ex-4.3, N-(7-chloro-6-(1-(4-hydroxytetrahydrofuran-3-yl)piperidin-4-yl)isoquinolin-3-yl)-6-oxaspiro[2.5]octane-1-carboxamide] it is 18.2 nM.
As to `O=C(Nc1cc2cc(C3CCN(C4COCC4O)CC3)c(Cl)cc2cn1)C1CC12CCOCC2` (single isomer, unassigned) [Ex-4.4, N-(7-chloro-6-(1-(4-hydroxytetrahydrofuran-3-yl)piperidin-4-yl)isoquinolin-3-yl)-6-oxaspiro[2.5]octane-1-carboxamide], the IC50 is 117 nM.
